The values that follow come from patent US5583138A, “17β-substituted 4-azaandrostane derivatives, pharmaceutical compositions containing them and process for preparing same” (Richter Gedeon Vegyeszeti Gyar Rt., priority 1992, dated 1996).

The target of this experiment is T1, steroid 5α-reductase enzyme (Homo sapiens, UniProt P31213).
T1 construct: Frozen human hyperplastic prostate was used for preparation of the enzyme; from tissue; host or cells: human hyperplastic prostate (frozen), sediment of 100000×g ultracentrifugation
T1 sequence (P31213 1-254): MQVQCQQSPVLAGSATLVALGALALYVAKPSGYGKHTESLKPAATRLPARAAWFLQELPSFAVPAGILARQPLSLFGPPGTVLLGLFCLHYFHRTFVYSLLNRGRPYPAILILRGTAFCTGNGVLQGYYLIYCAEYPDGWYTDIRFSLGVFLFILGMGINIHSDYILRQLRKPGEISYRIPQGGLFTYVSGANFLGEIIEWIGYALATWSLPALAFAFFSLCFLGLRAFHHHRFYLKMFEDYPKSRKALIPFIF
The experiment is described as follows: 5α-reductase inhibition: conversion of [3H]-testosterone to DHT and androstanediol by enzyme from human hyperplastic prostate. In kind it is biochemical. The following applies: 0.5 μM [3H]-testosterone, 500 μM NADPH, pH=5.1, 37° C., 10 minutes, read-out: IC50 (concentration decreasing the percentage conversion of testosterone by 50% in comparison to the control value).

For `C[C@]12C=CC(=O)N[C@@H]1CC[C@@H]1[C@@H]2CC[C@]2(C)[C@@H](C(=O)N3CCCCCC3)CC[C@@H]12` [17β-(hexamethyleneiminocarbonyl)-3-oxo-4-aza-5α-androst-1-ene], the IC50 was found to be 13.1 nM. In the case of `CC1CCCC(C)N1C(=O)[C@H]1CC[C@H]2[C@@H]3CC[C@H]4NC(=O)C=C[C@]4(C)[C@H]3CC[C@]12C` (stereo partly drawn) [17β-(2,6-dimethylpiperidinocarbonyl)-3-oxo-4-aza-5α-androst-1-ene] it was 8.59 nM. Turning to `CC(C)(C)NC(=O)[C@H]1CC[C@H]2[C@@H]3CC[C@H]4NC(=O)C=C[C@]4(C)[C@H]3CC[C@]12C` [MK-906, 17β-[N-(1,1-Dimethylethyl)carbamoyl]-3-oxo-4-aza-5α-androst-1-ene, reference compound], the IC50 was 18.4 nM. In the case of `C[C@]12C=CC(=O)N[C@@H]1CC[C@@H]1[C@@H]2CC[C@]2(C)[C@@H](C(=O)N3CCCCCCC3)CC[C@@H]12` [17β-(heptamethyleneiminocarbonyl)-3-oxo-4-aza-5α-androst-1-ene] it was 8.64 nM.
